Reference: patent US20240207300A1, “COMBINATION THERAPIES INCLUDING MYT1 INHIBITORS” (Repare Therapeutics Inc., priority 2021, published 2024)

biological target: recombinant human Myt1 (Homo sapiens (Human), UniProt Q99640); test: Recombinant human Myt1 kinase ADP-Glo enzymatic assay; assay type: biochemical; conditions: recombinant human Myt1 18 nM, ATP 10 μM
Description: Detection of Myt1 kinase activity utilized a recombinant human Myt1 kinase assay measuring the hydrolysis of ATP using a commercially available ADP-Glo Assay (ADP-Glo™ Kinase Assay from Promega, 10 000 assays, #V9102). […] After this, 5 μL of compounds (diluted in reaction buffer to 0.5% DMSO) was added to the microplate and the plate was spun briefly and incubated at 22° C. for 15 minutes. Ultra-Pure Adenosine Triphosphate (ATP) solution (ADP-Glo kit from Promega) was diluted in reaction buffer and 5 μL was added to the microplate, spun down briefly and incubated for 60 minutes at 30° C. […] After the 60-minute incubation, 15 μL of ADP-Glo reagent was added and the plate was spun briefly and sealed and incubated in the dark for 40 minutes at 22° C. […] Luminescence was read using the Envision (250 ms integration). The IC50 and the % max inhibition were calculated for each inhibitor compound tested.

Chain of recombinant human Myt1 (Q99640 whole entry): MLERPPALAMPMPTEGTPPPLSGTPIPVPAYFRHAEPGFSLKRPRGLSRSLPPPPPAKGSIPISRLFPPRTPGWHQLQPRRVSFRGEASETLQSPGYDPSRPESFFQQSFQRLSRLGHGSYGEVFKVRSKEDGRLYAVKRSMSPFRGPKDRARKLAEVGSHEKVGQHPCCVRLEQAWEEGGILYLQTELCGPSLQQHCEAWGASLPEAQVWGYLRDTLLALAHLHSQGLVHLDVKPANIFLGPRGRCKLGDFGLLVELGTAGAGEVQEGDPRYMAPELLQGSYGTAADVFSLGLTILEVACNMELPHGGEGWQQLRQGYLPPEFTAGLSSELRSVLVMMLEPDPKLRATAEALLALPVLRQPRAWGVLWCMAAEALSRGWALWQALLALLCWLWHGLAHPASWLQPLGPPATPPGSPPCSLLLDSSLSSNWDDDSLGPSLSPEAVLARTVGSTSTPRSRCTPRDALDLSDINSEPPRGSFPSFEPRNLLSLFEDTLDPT

Compound | IC50 [nM]
Cc1ccc(O)c(C)c1-n1c(N)c(C(N)=O)c2nc(C(C)(C)F)cnc21 [Compound 178, 6-amino-2-(1-fluoro-1-methyl-ethyl)-5-(3-hydroxy-2,6-dimethyl-phenyl)pyrrolo[2,3-b]pyrazine-7-carboxamide] | < 10
Cc1ccc(O)c(C)c1-n1c(N)c(C(N)=O)c2nc(C3CCCCC3)cnc21 [Compound 83] | < 10
Cc1ccc(O)c(C)c1-n1c(N)c(C(N)=O)c2cc(Br)c(C)nc21 [Compound 187] | < 10
Cc1ccc(O)c(C)c1-n1c(N)c(C(N)=O)c2nc(C3CC3)c(C)nc21 [Compound 100] | < 10
Cc1ccc(O)c(C)c1-n1cc(C(N)=O)c2cc(C3CC3)cnc21 [Compound 143] | < 10
Cc1ccc(O)c(C)c1-n1c(N)c(C(N)=O)c2cc(Br)cnc21 [Compound 141] | < 10
Cc1ccc(O)cc1-n1c(N)c(C(N)=O)c2nc(C3=CCCN(C(=O)OC(C)(C)C)C3)ccc21 [Compound 26] | 2000
Cc1ccc(O)c(C)c1-n1c(N)c(C(N)=O)c2c(C)c(Cl)cnc21 [Compound 313] | < 10
Cc1ccc(O)c(Br)c1-n1c(N)c(C(N)=O)c2cc(Cl)cnc21 [Compound 289] | < 10
Cc1ccc(O)c(C)c1-n1c(N)c(C(N)=O)c2c(Cl)c(Cl)cnc21 [Compound 316] | < 10
Cc1ccc(O)c(C)c1-n1c(N)c(C(N)=O)c2nc(-c3cnccn3)cnc21 [Compound 38] | < 10
Cc1ccc(O)c(Cl)c1-n1c(N)c(C(N)=O)c2nc(C3CC3)cnc21 [Compound 104] | < 10
Cc1ccc(O)c(C)c1-n1c(N)c(C(N)=O)c2nc(-c3nccs3)c(C)nc21 [Compound 31, 6-amino-5-(3-hydroxy-2,6-dimethyl-phenyl)-3-methyl-2-thiazol-2-yl-pyrrolo[2,3-b]pyrazine-7-carboxamide] | < 10
Cc1ccc(O)c(C)c1-n1c(N)c(C(N)=O)c2nc(-c3ccccn3)cnc21 [Compound 34] | < 10
Cc1ccc(O)c(C)c1-n1c(N)c(C(N)=O)c2cc(C(C)C)cnc21 [Compound 138] | < 10
Cc1ccc(O)c(C)c1-n1c(N)c(C(N)=O)c2nc(C3(C(F)(F)F)CC3)cnc21 [Compound 198, 6-amino-5-(3-hydroxy-2,6-dimethyl-phenyl)-2-[1-(trifluoromethyl)cyclopropyl]pyrrolo[2,3-b]pyrazine-7-carboxamide] | < 10
CCN(CC)c1cnc2c(n1)c(C(N)=O)c(N)n2-c1c(C)ccc(O)c1C [Compound 88] | < 10
Cc1ccc(O)c(C)c1-n1c(N)c(C(N)=O)c2nc(C3CCC3)cnc21 [Compound 173, 6-amino-2-cyclobutyl-5-(3-hydroxy-2,6-dimethyl-phenyl)pyrrolo[2,3-b]pyrazine-7-carboxamide] | < 10
Cc1ccc2c(C(N)=O)c(N)n(-c3c(C)ccc(O)c3C)c2n1 [Compound 193] | < 10
Cc1ccc(O)c(C)c1-n1c(N)c(C(N)=O)c2nc(-c3cncs3)cnc21 [Compound 37] | < 10
Cc1ccc(O)c(C)c1-n1c(N)c(C(N)=O)c2cc(Br)c(C)nc21 (single isomer, unassigned) [Compound 188] | < 10
Cc1ccc(O)c(C)c1-n1c(N)c(C(N)=O)c2nc(-c3nc(C)c(C)s3)cnc21 [Compound 32] | < 10
Cc1c(O)ccc(Cl)c1-n1c(N)c(C(N)=O)c2nc(-c3nccs3)cnc21 [Compound 42] | < 10
Cc1ccc(O)c(C)c1-n1c(N)c(C(N)=O)c2ncc(C#CC3OCCC3Cl)nc21 (centres unmarked) [Compound 233] | 10
Cc1ccc(O)c(C)c1-n1c(N)c(C(N)=O)c2cc(Br)c(C)nc21 (single isomer, unassigned) [Compound 189] | 1010
Cc1ccc(O)c(C)c1-n1c(N)c(C(N)=O)c2cc(I)cnc21 [Compound 319] | < 10
Cc1ccc(O)c(C)c1-n1c(N)c(C(N)=O)c2nc(-c3ccnc(C(F)(F)F)c3)cnc21 [Compound 35, 6-amino-5-(3-hydroxy-2,6-dimethyl-phenyl)-2-[2-(trifluoromethyl)-4-pyridyl]pyrrolo[2,3-b]pyrazine-7-carboxamide] | < 10
Cc1ccc(O)c(C)c1-n1c(N)c(C(N)=O)c2nc(-c3ccns3)cnc21 [Compound 41] | < 10

Results, then the compound that gave them:

IC50 [nM] | Compound
> 5000 | Cc1ccc(O)c(C)c1-n1c(N)c(S(C)(=O)=O)c2nc(-c3cnccn3)cnc21 [Compound 278]
52 | Cc1ccc(O)c(C)c1-n1c(N)c(C(N)=O)c2ncc(C#CC(C)O)nc21 (centres unmarked) [Compound 229]
< 10 | Cc1ccc(O)c(C)c1-n1c(N)c(C(N)=O)c2cc(-c3ccccn3)cnc21 [Compound 295]
< 10 | Cc1ccc(-c2cnc3c(n2)c(C(N)=O)c(N)n3-c2c(C)ccc(O)c2C)nc1 [Compound 61]
24 | Cc1ccc(O)c(C)c1-n1c(N)c(C(N)=O)c2ncc(C#CC(C)O)nc21 (centres unmarked) [Compound 241]
< 10 | Cc1ccc(O)c(C)c1-n1c(N)c(C(N)=O)c2nc(-c3c[nH]cn3)cnc21 [Compound 65]
< 10 | Cc1ccc(O)c(C)c1-n1c(N)c(C(N)=O)c2nc(N3CCC(C(=O)N(C)C)CC3)cnc21 [Compound 80]
< 10 | Cc1ccc(O)c(C)c1-n1c(N)c(C(N)=O)c2ncc(C#CC3(O)CCC(F)(F)CC3)nc21 [Compound 242, 6-amino-3-[2-(4,4-difluoro-1-hydroxy-cyclohexyl)ethynyl]-5-(3-hydroxy-2,6-dimethyl-phenyl)pyrrolo[2,3-b]pyrazine-7-carboxamide]
< 10 | C=C(C)c1cnc2c(n1)c(C(N)=O)c(N)n2-c1c(C)ccc(O)c1C [Compound 202]
< 10 | Cc1ccc(O)c(C)c1-n1c(N)c(C(N)=O)c2ncc(C#CC3(O)CCOCC3)nc21 [Compound 231]
< 10 | Cc1ccc(O)c(C)c1-n1c(N)c(C(N)=O)c2nc(-c3ccnnc3)cnc21 [Compound 250]
< 10 | C=Cc1cnc2c(n1)c(C(N)=O)c(N)n2-c1c(C)ccc(O)c1C [Compound 259]
< 10 | Cc1ccc(O)c(C)c1-n1c(N)c(C(N)=O)c2cc(C#N)cnc21 [Compound 312]
< 10 | CC(=O)N1CCN(c2cnc3c(n2)c(C(N)=O)c(N)n3-c2c(C)ccc(O)c2C)CC1 [Compound 87]
191 | COCCOCC#Cc1cnc2c(n1)c(-c1c(C)ccc(O)c1C)c(N)n2C(N)=O [Compound 240]
14 | Cc1ccc(O)c(C)c1-n1c(N)c(C(N)=O)c2ncc(C#CC3OCCC3O)nc21 (centres unmarked) [Compound 234]
< 10 | CNC(=O)C1CCN(c2cnc3c(n2)c(C(N)=O)c(N)n3-c2c(C)ccc(O)c2C)CC1 [Compound 46, 6-amino-5-(3-hydroxy-2,6-dimethyl-phenyl)-2-[4-(methylcarbamoyl)-1-piperidyl]pyrrolo[2,3-b]pyrazine-7-carboxamide]
< 10 | Cc1ccc(O)c(C)c1-n1c(N)c(C(N)=O)c2nc(N3CCCC3)cnc21 [Compound 85]
< 10 | Cc1ccc(O)c(C)c1-n1c(N)c(C(N)=O)c2nc(-c3ccc(F)cn3)cnc21 [Compound 64]

IC50 [nM] | Compound
< 10 | Cc1ccc(O)c(C)c1-n1c(N)c(C(N)=O)c2nc(N3CC4CCC(C3)O4)cnc21 [Compound 92]
< 10 | Cc1ccc(O)c(C)c1-n1c(N)c(C(N)=O)c2nc(N3CCCCC3)cnc21 [Compound 81]
< 10 | Cc1ccc(O)c(C)c1-n1c(N)c(C(N)=O)c2nc(-c3ccncn3)cnc21 [Compound 57]
< 10 | Cc1ccc(O)c(C)c1-n1c(N)c(C(N)=O)c2nc(-c3cn(C)cn3)cnc21 [Compound 76]
< 10 | Cc1ccc(O)c(C)c1-n1c(N)c(C(N)=O)c2cc(-c3nccs3)cnc21 [Compound 308]
< 10 | Cc1ccc(O)c(C)c1-n1c(N)c(C(N)=O)c2nc(-c3nc4ccccc4s3)cnc21 [Compound 248]
< 10 | Cc1ccc(O)c(C)c1-n1c(N)c(C(N)=O)c2cccnc21 [Compound 328]
< 10 | Cc1ccc(O)c(C)c1-n1c(N)c(C(N)=O)c2cc(S(=O)(=O)C3CC3)cnc21 [Compound 311]
< 10 | Cc1nc2c(C(N)=O)c(N)n(-c3c(Cl)ccc(O)c3C)c2nc1C [Compound 168]
< 10 | Cc1ccc(O)c(Cl)c1-n1c(N)c(C(N)=O)c2cc(Cl)cnc21 [Compound 327]
< 10 | Cc1ccc(O)c(C)c1-n1c(N)c(C(N)=O)c2nc(C3=CCCCC3)cnc21 [Compound 86]
< 10 | Cc1ccc(O)c(C)c1-n1c(N)c(C(N)=O)c2cc(C3=CCOCC3)cnc21 [Compound 304]
< 10 | Cc1ccc(O)c(C)c1-n1c(N)c(C(N)=O)c2nc(C3=CCC(C(=O)N(C)C)CC3)cnc21 (centres unmarked) [Compound 58]
< 10 | Cc1ccc(O)c(C)c1-n1c(N)c(C(N)=O)c2ncc(C#CCC3CCOCC3)nc21 [Compound 222]
< 10 | Cc1ccc(O)c(C)c1-n1c(N)c(C(N)=O)c2cc(N3CCCC3=O)cnc21 [Compound 298]
< 10 | Cc1ccc(O)c(C)c1-n1c(N)c(C(N)=O)c2nc(C(N)=O)cnc21 [Compound 220, 6-amino-5-(3-hydroxy-2,6-dimethyl-phenyl)pyrrolo[2,3-b]pyrazine-2,7-dicarboxamide]
< 10 | Cc1ccc(O)c(C)c1-n1c(N)c(C(N)=O)c2nc3c(nc21)CCCC3 [Compound 262]
< 10 | Cc1ccc(O)c(C)c1-n1c(N)c(C(N)=O)c2cc(C(C)(C)O)cnc21 [Compound 131]
